{"source": "paper PMC10331583", "about": "“Control of fibrosis with enhanced safety via asymmetric inhibition of prolyl‐tRNA synthetase 1” (EMBO Molecular Medicine, 2023)", "key": {"[1]": {"system": "TNT Quick Coupled Transcription/Translation System (luciferase synthesis)", "type": "biochemical"}, "WI‐26 VA4 cells [2]": {"system": "WI‐26 VA4 cells", "experiment": "Puromycin incorporation assay", "type": "cell-based, human", "experimental": "After being rinsed with cold PBS twice, the cells were collected and resuspended in 200 μl of the carbonate bicarbonate buffer (Sigma Aldrich, C3041‐50CAP) with protease inhibitor. The cell lysates were obtained by sonication and centrifugation at 20,000 g for 15 min at 4°C. After protein quantification using a Pierce™ BCA Protein Assay Kit (Thermo Fisher Scientific, 23225), 400 ng of the proteins was coated to ELISA plates for 18 h at 4°C. […] The plates were rinsed with the washing buffer for three times after each antibody incubation step. […] The amount of puromycin incorporated in proteins was determined by measuring the absorbance at 450 nm (reference wavelength at 620 nm). Experimental values marked in red with strikethrough text in the Figure Source Data file were excluded from the analysis. These values were determined by considering the values of biological and technical replicates under the same condition, as well as the values at the former and later chemical concentrations."}, "[3]": {"experiment": "CellTiter‐Glo assay (cytotoxicity)", "conditions": "human, WI-26 VA4 cells"}, "WI‐26 VA4 cells [4]": {"system": "WI‐26 VA4 cells", "experiment": "CellTiter‐Glo assay (cytotoxicity)", "conditions": "for activity at 0.01 µM: WI26VA4, read-out: CellTiter-Glo % of control, 10 nM; for activity at 0.03 µM: WI26VA4, read-out: CellTiter-Glo % of control, 30 nM; for activity at 0.1 µM: WI26VA4, read-out: CellTiter-Glo % of control, 100 nM; for activity at 0.3 µM: WI26VA4, read-out: CellTiter-Glo % of control, 300 nM; for activity at 1 µM: WI26VA4, read-out: CellTiter-Glo % of control, 1000 nM; for activity at 3 µM: WI26VA4, read-out: CellTiter-Glo % of control, 3000 nM"}, "[5]": {"conditions": "log(inhibitor) vs. response, variable slope (four parameters), concentration in nM"}, "[6]": {"conditions": "Homo sapiens, Experiment #1, replicates"}, "[7]": {"conditions": "Homo sapiens, Experiment #2, replicates"}}, "note": "Where “and” joins values, the source holds several entries; their conditions need not be identical. Identical values can stand only once. Like-named read-outs stand apart in the source and are kept apart here."}
{"compound": "O[C@H]1CCCN[C@@H]1CCCn1cnc2c(Cl)c(Cl)ccc21", "note": "[DWN12088]", "values": [{"measurement": "TNT-luciferase % of control", "setting": "[1]; 2000 nM, Experiment #1, replicates, 2 µM", "value": "107.63 % of control and 97.97 % of control and 101.55 % of control"}, {"measurement": "TNT-luciferase % of control", "setting": "[1]; 2000 nM, Experiment #2, replicates, 2 µM", "value": "104.64 % of control and 94.62 % of control and 88.50 % of control"}, {"measurement": "TNT-luciferase % of control, average", "setting": "[1]; 2000 nM", "value": "99.15 % of control"}, {"measurement": "TNT-luciferase % of control", "setting": "[1]; 6000 nM, Experiment #1, replicates, 6 µM", "value": "101.91 % of control and 104.41 % of control and 119.43 % of control"}, {"measurement": "TNT-luciferase % of control", "setting": "[1]; 6000 nM, Experiment #2, replicates, 6 µM", "value": "96.85 % of control and 102.97 % of control and 104.64 % of control"}, {"measurement": "TNT-luciferase % of control, average", "setting": "[1]; 6000 nM", "value": "105.03 % of control"}, {"measurement": "TNT-luciferase % of control", "setting": "[1]; 20000 nM, Experiment #1, replicates, 20 µM", "value": "72.94 % of control (2×) and 59.71 % of control"}, {"measurement": "TNT-luciferase % of control", "setting": "[1]; 20000 nM, Experiment #2, replicates, 20 µM", "value": "84.60 % of control (2×) and 85.71 % of control"}, {"measurement": "TNT-luciferase % of control, average", "setting": "[1]; 20000 nM", "value": "76.75 % of control"}, {"measurement": "TNT-luciferase % of control", "setting": "[1]; 60000 nM, Experiment #1, replicates, 60 µM", "value": "38.97 % of control and 46.84 % of control and 41.48 % of control"}, {"measurement": "TNT-luciferase % of control", "setting": "[1]; 60000 nM, Experiment #2, replicates, 60 µM", "value": "51.21 % of control and 53.71 % of control and 53.43 % of control"}, {"measurement": "TNT-luciferase % of control, average", "setting": "[1]; 60000 nM", "value": "47.61 % of control"}, {"measurement": "TNT-luciferase % of control", "setting": "[1]; 200000 nM, Experiment #1, replicates, 200 µM", "value": "1.16 % of control and 1.03 % of control and 1.24 % of control"}, {"measurement": "TNT-luciferase % of control", "setting": "[1]; 200000 nM, Experiment #2, replicates, 200 µM", "value": "6.68 % of control and 5.56 % of control and 5.68 % of control"}, {"measurement": "TNT-luciferase % of control, average", "setting": "[1]; 200000 nM", "value": "3.56 % of control"}, {"measurement": "TNT-luciferase % of control", "setting": "[1]; 600000 nM, Experiment #1, replicates, 600 µM", "value": "0.00561 % of control and 0.00168 % of control and 0.00107 % of control"}, {"measurement": "TNT-luciferase % of control", "setting": "[1]; 600000 nM, Experiment #2, replicates, 600 µM", "value": "0.24 % of control and 0.28 % of control and 0.27 % of control"}, {"measurement": "TNT-luciferase % of control, average", "setting": "[1]; 600000 nM", "value": "0.13 % of control"}, {"measurement": "TNT-luciferase % of control", "setting": "[1]; 2000000 nM, Experiment #1, replicates, 2000 µM", "value": "0.00107 % of control and -0.00501 % of control and -0.00597 % of control"}, {"measurement": "TNT-luciferase % of control", "setting": "[1]; 2000000 nM, Experiment #2, replicates, 2000 µM", "value": "0.0153 % of control and 0.00456 % of control and 0.00807 % of control"}, {"measurement": "TNT-luciferase % of control, average", "setting": "[1]; 2000000 nM", "value": "0.00301 % of control"}, {"measurement": "TNT-luciferase LogIC50 (best-fit value)", "setting": "[1]; [5]", "value": 4.702}, {"measurement": "IC50", "setting": "[1]; log(inhibitor) vs. response, variable slope (four parameters), unit from head concentration (nM), read-out: TNT-luciferase IC50 (best-fit value)", "value": 50300, "unit": "nM"}, {"measurement": "Puromycin, % of control, single replicate", "setting": "WI‐26 VA4 cells [2]; 30000 nM, 30 µM", "value": "67.68 % of control (2×) and 67.72 % of control (2×) and 65.74 % of control (2×) and 95.99 % of control and 94.34 % of control and 94.68 % of control"}, {"measurement": "Puromycin, % of control, single replicate", "setting": "WI‐26 VA4 cells [2]; 300000 nM, 300 µM", "value": "0.28 % of control (2×) and -0.36 % of control (2×) and 0.08 % of control (2×) and 0.75 % of control and 0.84 % of control and 0.22 % of control"}, {"measurement": "Puromycin, % of control, single replicate", "setting": "WI‐26 VA4 cells [2]; 1000000 nM, 1000 µM", "value": "-0.0139 % of control (2×) and -0.24 % of control (2×) and 0.08 % of control (2×) and 0.39 % of control (2×) and 0.49 % of control"}, {"measurement": "activity at 0.3 µM", "setting": "WI‐26 VA4 cells [2]; Homo sapiens, WI26VA4, read-out: Puromycin, % of control, average, 300 nM", "value": 104, "unit": "%"}, {"measurement": "activity at 1 µM", "setting": "WI‐26 VA4 cells [2]; Homo sapiens, WI26VA4, read-out: Puromycin, % of control, average, 1000 nM", "value": 109, "unit": "%"}, {"measurement": "activity at 3 µM", "setting": "WI‐26 VA4 cells [2]; Homo sapiens, WI26VA4, read-out: Puromycin, % of control, average, 3000 nM", "value": 103, "unit": "%"}, {"measurement": "activity at 30 µM", "setting": "WI‐26 VA4 cells [2]; Homo sapiens, WI26VA4, read-out: Puromycin, % of control, average, 30000 nM", "value": 76.4, "unit": "%"}, {"measurement": "activity at 100 µM", "setting": "WI‐26 VA4 cells [2]; Homo sapiens, WI26VA4, read-out: Puromycin, % of control, average, 100000 nM", "value": 29.7, "unit": "%"}, {"measurement": "activity at 300 µM", "setting": "WI‐26 VA4 cells [2]; Homo sapiens, WI26VA4, read-out: Puromycin, % of control, average, 300000 nM", "value": 0.2, "unit": "%"}, {"measurement": "activity at 1000 µM", "setting": "WI‐26 VA4 cells [2]; Homo sapiens, WI26VA4, read-out: Puromycin, % of control, average, 1000000 nM", "value": 0.1, "unit": "%"}, {"measurement": "activity at 0.3 µM", "setting": "WI‐26 VA4 cells [2]; Homo sapiens, WI26VA4, read-out: Puromycin, % of control, single replicate, 300 nM", "value": 107, "unit": "%"}, {"measurement": "activity at 1 µM", "setting": "WI‐26 VA4 cells [2]; Homo sapiens, WI26VA4, read-out: Puromycin, % of control, single replicate, 1000 nM", "value": 107, "unit": "%"}, {"measurement": "activity at 3 µM", "setting": "WI‐26 VA4 cells [2]; Homo sapiens, WI26VA4, read-out: Puromycin, % of control, single replicate, 3000 nM", "value": 99.5, "unit": "%"}, {"measurement": "activity at 10 µM", "setting": "WI‐26 VA4 cells [2]; Homo sapiens, WI26VA4, read-out: Puromycin, % of control, single replicate, 10000 nM", "value": 98.3, "unit": "%"}, {"measurement": "activity at 100 µM", "setting": "WI‐26 VA4 cells [2]; Homo sapiens, WI26VA4, read-out: Puromycin, % of control, single replicate, 100000 nM", "value": 27.4, "unit": "%"}, {"measurement": "IC50", "setting": "WI‐26 VA4 cells [2]; Homo sapiens, WI26VA4, read-out: Puromycin, IC50 (best-fit value)", "value": 56.8, "unit": "µM"}, {"measurement": "Puromycin, HillSlope (best-fit value)", "setting": "WI‐26 VA4 cells [2]; log(inhibitor) vs. response, variable slope (four parameters)", "value": -1.616}, {"measurement": "Puromycin, LogIC50 (best-fit value)", "setting": "WI‐26 VA4 cells [2]; [5]", "value": 4.754}, {"measurement": "CC50 at 72 h", "setting": "[3]; CC50 (CellTiter-Glo), 72 h (Fig 5B)", "value": 20.3, "unit": "µM"}, {"measurement": "CC50 at 72 h", "setting": "[3]; CC50, 72 h (Fig 1B)", "value": 20.8, "unit": "µM"}, {"measurement": "CC50 fold versus HF", "setting": "WI‐26 VA4 cells [4]; Fig 1B", "value": "~ 397 fold"}, {"measurement": "activity at 0.01 µM", "setting": "WI‐26 VA4 cells [4]; [6]", "value": 107, "unit": "%"}, {"measurement": "activity at 0.01 µM", "setting": "WI‐26 VA4 cells [4]; [7]", "value": 105, "unit": "%"}, {"measurement": "activity at 0.03 µM", "setting": "WI‐26 VA4 cells [4]; [6]", "value": 95.8, "unit": "%"}, {"measurement": "activity at 0.03 µM", "setting": "WI‐26 VA4 cells [4]; [7]", "value": 108, "unit": "%"}, {"measurement": "activity at 0.1 µM", "setting": "WI‐26 VA4 cells [4]; [6]", "value": 107, "unit": "%"}, {"measurement": "activity at 0.1 µM", "setting": "WI‐26 VA4 cells [4]; [7]", "value": 107, "unit": "%"}, {"measurement": "activity at 0.3 µM", "setting": "WI‐26 VA4 cells [4]; [6]", "value": 109, "unit": "%"}, {"measurement": "activity at 0.3 µM", "setting": "WI‐26 VA4 cells [4]; [7]", "value": 102, "unit": "%"}, {"measurement": "activity at 1 µM", "setting": "WI‐26 VA4 cells [4]; [6]", "value": 106, "unit": "%"}, {"measurement": "activity at 1 µM", "setting": "WI‐26 VA4 cells [4]; [7]", "value": 105, "unit": "%"}, {"measurement": "activity at 3 µM", "setting": "WI‐26 VA4 cells [4]; [6]", "value": 88.2, "unit": "%"}, {"measurement": "activity at 3 µM", "setting": "WI‐26 VA4 cells [4]; [7]", "value": 90.3, "unit": "%"}, {"measurement": "activity at 10 µM", "setting": "WI‐26 VA4 cells [4]; Homo sapiens, WI26VA4, read-out: CellTiter-Glo % of control, 10000 nM, Experiment #1, replicates", "value": 71.7, "unit": "%"}]}
